Source: ChEMBL document CHEMBL3991601, “The target landscape of clinical kinase drugs” (Science, 2017)
Calls of active or inactive are those of the source.

Experiments:
[1] = target: Dual specificity protein kinase CLK2 (Homo sapiens, UniProt P49760)
[2] = target: T1, ATP-dependent RNA helicase DHX30 (Homo sapiens, UniProt Q7L2E3)
T1 sequence (Q7L2E3 whole entry): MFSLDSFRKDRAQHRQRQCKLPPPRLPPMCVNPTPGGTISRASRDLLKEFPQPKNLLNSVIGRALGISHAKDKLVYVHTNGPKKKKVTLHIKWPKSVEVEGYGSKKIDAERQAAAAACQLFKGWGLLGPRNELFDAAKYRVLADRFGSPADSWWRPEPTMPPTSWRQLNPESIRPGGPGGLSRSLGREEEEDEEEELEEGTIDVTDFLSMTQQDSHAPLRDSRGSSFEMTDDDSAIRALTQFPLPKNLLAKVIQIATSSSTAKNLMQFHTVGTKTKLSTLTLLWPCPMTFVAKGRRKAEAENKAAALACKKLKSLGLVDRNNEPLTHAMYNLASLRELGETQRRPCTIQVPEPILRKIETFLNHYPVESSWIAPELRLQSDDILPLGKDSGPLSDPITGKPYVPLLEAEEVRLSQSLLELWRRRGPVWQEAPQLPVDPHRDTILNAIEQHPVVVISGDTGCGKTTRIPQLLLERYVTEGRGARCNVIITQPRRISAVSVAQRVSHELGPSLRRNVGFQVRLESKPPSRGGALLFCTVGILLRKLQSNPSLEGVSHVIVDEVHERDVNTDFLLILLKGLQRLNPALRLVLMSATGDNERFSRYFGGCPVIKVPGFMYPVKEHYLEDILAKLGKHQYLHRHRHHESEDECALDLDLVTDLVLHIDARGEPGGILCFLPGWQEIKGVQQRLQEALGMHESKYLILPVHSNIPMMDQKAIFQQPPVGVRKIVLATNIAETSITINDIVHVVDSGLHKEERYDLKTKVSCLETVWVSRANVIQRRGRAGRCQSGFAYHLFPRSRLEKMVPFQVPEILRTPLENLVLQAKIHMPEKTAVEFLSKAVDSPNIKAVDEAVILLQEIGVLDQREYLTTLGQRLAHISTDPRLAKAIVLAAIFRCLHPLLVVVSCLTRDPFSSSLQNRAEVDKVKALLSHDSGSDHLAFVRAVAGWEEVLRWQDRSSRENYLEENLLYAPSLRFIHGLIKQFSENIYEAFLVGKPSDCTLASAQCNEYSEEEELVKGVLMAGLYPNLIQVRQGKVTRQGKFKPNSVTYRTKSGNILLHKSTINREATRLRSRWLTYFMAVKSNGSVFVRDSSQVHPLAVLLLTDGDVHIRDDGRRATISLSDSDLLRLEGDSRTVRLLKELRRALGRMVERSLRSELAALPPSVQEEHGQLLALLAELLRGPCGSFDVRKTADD

Myosin-10 = Myosin-10 (Homo sapiens, UniProt P35580)
Sequence of Myosin-10 (P35580 whole entry): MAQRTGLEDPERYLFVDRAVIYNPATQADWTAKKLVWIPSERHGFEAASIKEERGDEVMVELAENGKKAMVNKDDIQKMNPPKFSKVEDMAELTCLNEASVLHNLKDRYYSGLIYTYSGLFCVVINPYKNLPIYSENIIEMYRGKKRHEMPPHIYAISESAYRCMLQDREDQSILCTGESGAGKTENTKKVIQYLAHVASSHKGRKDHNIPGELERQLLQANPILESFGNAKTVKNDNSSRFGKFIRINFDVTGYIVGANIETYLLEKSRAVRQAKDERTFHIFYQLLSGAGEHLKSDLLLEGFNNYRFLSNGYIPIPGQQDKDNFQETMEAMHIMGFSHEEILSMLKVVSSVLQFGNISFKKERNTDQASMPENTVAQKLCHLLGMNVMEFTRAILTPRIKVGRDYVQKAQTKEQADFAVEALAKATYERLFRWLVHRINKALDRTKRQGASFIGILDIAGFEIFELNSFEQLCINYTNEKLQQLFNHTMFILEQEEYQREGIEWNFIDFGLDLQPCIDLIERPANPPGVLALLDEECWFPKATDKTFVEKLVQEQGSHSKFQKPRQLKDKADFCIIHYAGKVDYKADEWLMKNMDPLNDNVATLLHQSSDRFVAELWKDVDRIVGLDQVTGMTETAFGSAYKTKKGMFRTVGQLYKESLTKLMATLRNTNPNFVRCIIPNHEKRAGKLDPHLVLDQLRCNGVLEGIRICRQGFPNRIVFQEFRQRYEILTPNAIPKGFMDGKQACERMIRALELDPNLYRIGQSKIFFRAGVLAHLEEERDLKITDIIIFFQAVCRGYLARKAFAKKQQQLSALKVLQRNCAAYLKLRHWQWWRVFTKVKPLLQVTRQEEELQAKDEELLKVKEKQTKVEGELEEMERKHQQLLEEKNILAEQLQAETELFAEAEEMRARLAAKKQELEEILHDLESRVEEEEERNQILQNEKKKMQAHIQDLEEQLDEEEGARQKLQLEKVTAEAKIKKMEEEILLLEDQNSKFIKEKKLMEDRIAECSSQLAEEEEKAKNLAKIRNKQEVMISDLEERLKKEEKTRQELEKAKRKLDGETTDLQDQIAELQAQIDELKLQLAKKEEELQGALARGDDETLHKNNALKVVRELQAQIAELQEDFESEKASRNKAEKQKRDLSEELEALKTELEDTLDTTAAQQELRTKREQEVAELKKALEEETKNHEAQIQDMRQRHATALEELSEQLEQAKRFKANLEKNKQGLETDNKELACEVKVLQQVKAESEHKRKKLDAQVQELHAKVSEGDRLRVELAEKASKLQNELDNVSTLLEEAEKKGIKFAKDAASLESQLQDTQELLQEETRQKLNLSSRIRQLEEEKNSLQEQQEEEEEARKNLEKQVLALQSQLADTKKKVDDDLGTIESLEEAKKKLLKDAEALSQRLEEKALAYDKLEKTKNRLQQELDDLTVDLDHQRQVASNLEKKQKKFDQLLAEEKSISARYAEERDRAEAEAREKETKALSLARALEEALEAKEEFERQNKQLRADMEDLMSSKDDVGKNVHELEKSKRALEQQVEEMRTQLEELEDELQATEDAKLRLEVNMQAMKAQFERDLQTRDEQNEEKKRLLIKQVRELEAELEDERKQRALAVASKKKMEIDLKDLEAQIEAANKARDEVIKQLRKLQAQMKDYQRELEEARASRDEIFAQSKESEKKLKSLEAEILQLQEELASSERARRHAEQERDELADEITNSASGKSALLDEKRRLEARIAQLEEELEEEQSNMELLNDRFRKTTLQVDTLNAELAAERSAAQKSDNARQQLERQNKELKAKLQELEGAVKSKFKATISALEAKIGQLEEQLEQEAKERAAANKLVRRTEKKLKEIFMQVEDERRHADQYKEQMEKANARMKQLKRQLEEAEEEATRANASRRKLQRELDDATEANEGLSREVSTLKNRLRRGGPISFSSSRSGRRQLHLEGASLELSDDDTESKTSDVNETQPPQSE

Obg-like ATPase 1 = Obg-like ATPase 1 (Homo sapiens, UniProt Q9NTK5)
Sequence of Obg-like ATPase 1 (Q9NTK5 whole entry, looked up): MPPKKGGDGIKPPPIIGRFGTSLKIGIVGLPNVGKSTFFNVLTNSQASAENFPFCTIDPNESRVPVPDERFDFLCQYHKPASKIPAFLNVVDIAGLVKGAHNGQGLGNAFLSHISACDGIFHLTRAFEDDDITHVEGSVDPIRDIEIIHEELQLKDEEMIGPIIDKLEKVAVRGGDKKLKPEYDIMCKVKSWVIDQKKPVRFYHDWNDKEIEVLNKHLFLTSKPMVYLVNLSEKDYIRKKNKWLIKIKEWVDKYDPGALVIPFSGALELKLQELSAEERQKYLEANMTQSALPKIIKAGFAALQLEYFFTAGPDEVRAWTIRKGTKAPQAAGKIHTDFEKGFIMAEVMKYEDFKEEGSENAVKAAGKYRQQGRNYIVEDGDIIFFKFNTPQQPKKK

[3] = target: Choline-phosphate cytidylyltransferase A (Homo sapiens, UniProt P49585)
[4] = target: Phosphatidylethanolamine-binding protein 1 (Homo sapiens, UniProt P30086)
Sequence of Phosphatidylethanolamine-binding protein 1 (P30086 whole entry): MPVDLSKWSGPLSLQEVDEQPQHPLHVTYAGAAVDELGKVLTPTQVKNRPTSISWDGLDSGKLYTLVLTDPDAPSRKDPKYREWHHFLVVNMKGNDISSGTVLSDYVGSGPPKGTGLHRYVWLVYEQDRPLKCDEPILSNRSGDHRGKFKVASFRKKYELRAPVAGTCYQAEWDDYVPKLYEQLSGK

[5] = target: Serine/threonine-protein kinase 24 (Homo sapiens, UniProt Q9Y6E0)
[6] = target: Cyclin-dependent kinase 17 (Homo sapiens, UniProt Q00537)
Sequence of Cyclin-dependent kinase 17 (Q00537 whole entry): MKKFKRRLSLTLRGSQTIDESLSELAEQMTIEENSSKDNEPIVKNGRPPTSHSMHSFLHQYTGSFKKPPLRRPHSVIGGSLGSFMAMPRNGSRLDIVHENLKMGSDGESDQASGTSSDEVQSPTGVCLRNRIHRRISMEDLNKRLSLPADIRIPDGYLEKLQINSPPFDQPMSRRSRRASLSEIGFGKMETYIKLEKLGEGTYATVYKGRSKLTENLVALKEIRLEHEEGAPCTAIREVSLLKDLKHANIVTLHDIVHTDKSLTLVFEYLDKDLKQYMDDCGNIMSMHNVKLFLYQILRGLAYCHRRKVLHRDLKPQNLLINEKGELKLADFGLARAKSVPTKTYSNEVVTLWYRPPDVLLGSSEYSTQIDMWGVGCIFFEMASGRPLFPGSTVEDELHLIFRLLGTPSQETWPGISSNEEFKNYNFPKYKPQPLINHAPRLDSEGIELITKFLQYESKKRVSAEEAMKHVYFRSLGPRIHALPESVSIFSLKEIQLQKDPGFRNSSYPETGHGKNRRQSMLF

Ephrin type-A receptor 1 = target: T2, Ephrin type-A receptor 1 (Homo sapiens, UniProt P21709)
T2 sequence (P21709 whole entry): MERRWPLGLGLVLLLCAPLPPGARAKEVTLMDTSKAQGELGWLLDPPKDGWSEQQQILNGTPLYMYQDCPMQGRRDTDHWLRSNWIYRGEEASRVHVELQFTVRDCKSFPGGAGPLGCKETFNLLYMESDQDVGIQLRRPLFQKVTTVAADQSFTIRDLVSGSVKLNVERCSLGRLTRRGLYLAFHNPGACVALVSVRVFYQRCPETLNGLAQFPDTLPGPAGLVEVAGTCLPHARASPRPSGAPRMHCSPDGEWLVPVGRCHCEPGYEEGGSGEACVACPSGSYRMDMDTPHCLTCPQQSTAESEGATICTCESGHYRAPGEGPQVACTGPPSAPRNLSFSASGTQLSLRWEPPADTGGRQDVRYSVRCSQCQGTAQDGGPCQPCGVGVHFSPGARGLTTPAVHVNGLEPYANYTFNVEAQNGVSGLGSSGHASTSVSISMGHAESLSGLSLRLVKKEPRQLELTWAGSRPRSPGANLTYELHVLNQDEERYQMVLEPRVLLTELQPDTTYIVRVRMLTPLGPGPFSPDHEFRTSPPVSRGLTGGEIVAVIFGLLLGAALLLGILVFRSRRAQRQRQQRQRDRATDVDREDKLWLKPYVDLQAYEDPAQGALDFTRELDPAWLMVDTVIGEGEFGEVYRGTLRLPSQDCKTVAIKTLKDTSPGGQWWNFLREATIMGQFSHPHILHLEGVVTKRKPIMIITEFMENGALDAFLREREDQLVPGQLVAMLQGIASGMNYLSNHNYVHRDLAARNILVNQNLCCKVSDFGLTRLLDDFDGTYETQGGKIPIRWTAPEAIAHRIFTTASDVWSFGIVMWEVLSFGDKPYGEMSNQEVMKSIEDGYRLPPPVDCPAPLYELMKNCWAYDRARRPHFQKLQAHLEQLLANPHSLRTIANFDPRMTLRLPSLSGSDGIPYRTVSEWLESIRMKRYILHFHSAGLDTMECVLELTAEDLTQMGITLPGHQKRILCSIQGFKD

[7] = target: Serine/threonine-protein kinase Nek7 (Homo sapiens, UniProt Q8TDX7)
[8] = target: G protein-coupled receptor kinase 6 (Homo sapiens, UniProt P43250)
[9] = target: Serine/threonine-protein kinase PAK 6 (Homo sapiens, UniProt Q9NQU5)
[10] = target: Cell division cycle 7-related protein kinase (Homo sapiens, UniProt O00311)
Misshapen-like kinase 1 = Misshapen-like kinase 1 (Homo sapiens, UniProt Q8N4C8)
Sequence of Misshapen-like kinase 1 (Q8N4C8 whole entry): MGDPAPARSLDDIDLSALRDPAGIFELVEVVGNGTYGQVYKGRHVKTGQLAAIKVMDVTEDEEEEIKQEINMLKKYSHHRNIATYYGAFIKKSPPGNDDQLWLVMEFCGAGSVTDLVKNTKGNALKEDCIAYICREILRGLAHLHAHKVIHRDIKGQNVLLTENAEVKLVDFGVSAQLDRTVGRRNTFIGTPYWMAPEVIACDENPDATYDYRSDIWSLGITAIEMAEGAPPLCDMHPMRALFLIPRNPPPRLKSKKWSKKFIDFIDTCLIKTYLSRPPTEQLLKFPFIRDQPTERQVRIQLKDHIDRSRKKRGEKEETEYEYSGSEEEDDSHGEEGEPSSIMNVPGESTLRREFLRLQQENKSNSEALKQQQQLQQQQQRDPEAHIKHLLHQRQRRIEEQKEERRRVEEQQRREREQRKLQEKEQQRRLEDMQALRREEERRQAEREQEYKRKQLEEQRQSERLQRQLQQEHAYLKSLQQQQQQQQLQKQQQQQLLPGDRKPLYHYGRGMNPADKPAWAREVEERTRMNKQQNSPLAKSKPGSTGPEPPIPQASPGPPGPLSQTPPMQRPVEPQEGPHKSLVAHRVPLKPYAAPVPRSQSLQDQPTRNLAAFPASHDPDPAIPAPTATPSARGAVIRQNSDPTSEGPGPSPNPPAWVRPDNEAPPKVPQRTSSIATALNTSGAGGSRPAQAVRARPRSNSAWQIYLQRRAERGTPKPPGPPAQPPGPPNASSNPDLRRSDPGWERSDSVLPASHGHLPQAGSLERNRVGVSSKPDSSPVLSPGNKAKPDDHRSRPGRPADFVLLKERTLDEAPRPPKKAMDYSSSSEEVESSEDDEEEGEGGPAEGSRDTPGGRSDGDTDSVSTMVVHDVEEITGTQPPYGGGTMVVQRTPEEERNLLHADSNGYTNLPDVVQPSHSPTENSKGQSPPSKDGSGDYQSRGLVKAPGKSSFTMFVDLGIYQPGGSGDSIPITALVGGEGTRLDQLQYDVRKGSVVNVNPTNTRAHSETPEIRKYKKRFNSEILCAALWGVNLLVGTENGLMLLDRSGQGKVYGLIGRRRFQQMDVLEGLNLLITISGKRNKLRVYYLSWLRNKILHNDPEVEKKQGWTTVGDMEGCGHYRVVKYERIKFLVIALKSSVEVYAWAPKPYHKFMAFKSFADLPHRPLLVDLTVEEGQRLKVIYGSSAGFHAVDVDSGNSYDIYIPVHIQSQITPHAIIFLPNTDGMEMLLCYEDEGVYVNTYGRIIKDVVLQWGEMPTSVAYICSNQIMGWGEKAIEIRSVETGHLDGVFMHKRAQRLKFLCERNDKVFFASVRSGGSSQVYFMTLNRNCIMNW
Note: in the data inactive means no Kd found up to 30 µM.

Sequence of Dual specificity protein kinase CLK2 (P49760 whole entry): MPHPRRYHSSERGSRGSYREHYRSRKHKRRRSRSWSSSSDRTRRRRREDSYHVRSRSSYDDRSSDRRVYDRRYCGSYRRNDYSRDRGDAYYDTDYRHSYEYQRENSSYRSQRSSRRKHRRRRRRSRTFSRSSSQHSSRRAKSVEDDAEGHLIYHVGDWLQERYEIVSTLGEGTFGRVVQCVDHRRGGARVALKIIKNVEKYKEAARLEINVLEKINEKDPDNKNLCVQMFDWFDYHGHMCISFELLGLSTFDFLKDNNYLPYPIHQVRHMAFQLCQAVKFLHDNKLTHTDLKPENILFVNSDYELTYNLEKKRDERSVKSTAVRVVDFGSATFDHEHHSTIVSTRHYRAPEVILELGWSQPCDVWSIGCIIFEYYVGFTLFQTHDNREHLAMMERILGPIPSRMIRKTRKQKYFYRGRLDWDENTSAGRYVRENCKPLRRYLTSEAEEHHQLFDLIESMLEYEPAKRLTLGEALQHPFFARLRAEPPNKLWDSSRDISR

Kd [1] | Kd [2] | Kd (Myosin-10) | Kd (Obg-like ATPase 1) | Kd [3] | Kd [4] | Kd [5] | Kd [6] | Kd (Ephrin type-A receptor 1) | Kd [7] | Kd [8] | Kd [9] | Kd [10] | Kd (Misshapen-like kinase 1) | SMILES
> 30 µM (inactive) | > 30 µM (inactive) | > 30 µM (inactive) | > 30 µM (inactive) | > 30 µM (inactive) | > 30 µM (inactive) | > 30 µM (inactive) | – | – | – | – | – | – | – | N[C@@H]1CCCN(c2c(/C=C3\SC(=O)NC3=O)cccc2-c2ccccc2)C1
> 30 µM (inactive) | > 30 µM (inactive) | > 30 µM (inactive) | > 30 µM (inactive) | – | – | > 30 µM (inactive) | > 30 µM (inactive) | > 30 µM (inactive) | > 30 µM (inactive) | – | – | – | – | Cc1ccc(S(=O)(=O)Nc2nc3ccccc3nc2Nc2ccc3nsnc3c2)cc1
> 30 µM (inactive) | > 30 µM (inactive) | > 30 µM (inactive) | > 30 µM (inactive) | > 30 µM (inactive) | > 30 µM (inactive) | > 30 µM (inactive) | > 30 µM (inactive) | > 30 µM (inactive) | – | > 30 µM (inactive) | > 30 µM (inactive) | – | – | Cc1cc([C@@H](C)Nc2ccccc2C(=O)O)c2nc(N3CCOCC3)cc(=O)n2c1 [AZD-6482]
– | – | – | – | – | – | > 30 µM (inactive) | > 30 µM (inactive) | > 30 µM (inactive) | – | – | > 30 µM (inactive) | > 30 µM (inactive) | – | C[C@@H](Nc1cc(F)cc(F)c1)c1cc(C(=O)N(C)C)cc2c(=O)cc(N3CCOCC3)oc12 [AZD-8186]
– | – | > 30 µM (inactive) | > 30 µM (inactive) | > 30 µM (inactive) | > 30 µM (inactive) | > 30 µM (inactive) | 0.007 µM (active) | – | > 30 µM (inactive) | – | – | – | – | Cc1nc(N)sc1-c1ccnc(Nc2ccc(N3CCOCC3)cc2)n1 [CYC-116]
– | > 30 µM (inactive) | > 30 µM (inactive) | > 30 µM (inactive) | > 30 µM (inactive) | – | – | – | – | – | > 30 µM (inactive) | – | – | – | CN1CCN(c2ccc3nc(-c4c(N)c5c(F)cccc5[nH]c4=O)[nH]c3c2)CC1 [DOVITINIB]
– | – | – | > 30 µM (inactive) | – | > 30 µM (inactive) | – | – | – | – | – | – | – | – | CCn1c(-c2nonc2N)nc2c(C#CC(C)(C)O)ncc(OC[C@H]3CCCNC3)c21 [GSK-690693]
> 30 µM (inactive) | > 30 µM (inactive) | – | – | – | > 30 µM (inactive) | > 30 µM (inactive) | > 30 µM (inactive) | > 30 µM (inactive) | – | > 30 µM (inactive) | > 30 µM (inactive) | – | > 30 µM (inactive) | CC[C@H](Nc1ncnc2[nH]cnc12)c1nc2cccc(F)c2c(=O)n1-c1ccccc1 [IDELALISIB]
– | – | > 30 µM (inactive) | > 30 µM (inactive) | – | > 30 µM (inactive) | > 30 µM (inactive) | – | – | – | – | – | – | – | C1=C/COCc2cc(ccc2OCCN2CCCC2)Nc2nccc(n2)-c2cccc(c2)COC/1 [PACRITINIB]
> 30 µM (inactive) | > 30 µM (inactive) | – | – | – | > 30 µM (inactive) | – | > 30 µM (inactive) | > 30 µM (inactive) | – | – | > 30 µM (inactive) | – | > 30 µM (inactive) | CNC(=O)c1ccc(C)c(-n2c(C)cc(OCc3ccc(F)cc3F)c(Br)c2=O)c1 [PH-797804]
> 30 µM (inactive) | – | – | – | – | > 30 µM (inactive) | > 30 µM (inactive) | > 30 µM (inactive) | – | – | – | – | – | > 30 µM (inactive) | C[C@@H](c1ccc2nccn2c1)n1nnc2ncc(-c3cnn(C)c3)nc21 [SAVOLITINIB]
> 30 µM (inactive) | – | > 30 µM (inactive) | > 30 µM (inactive) | > 30 µM (inactive) | – | > 30 µM (inactive) | > 30 µM (inactive) | > 30 µM (inactive) | > 30 µM (inactive) | > 30 µM (inactive) | > 30 µM (inactive) | > 30 µM (inactive) | > 30 µM (inactive) | CN1CCC(CNc2ccc3ncc(-c4cccc(OC(F)(F)F)c4)n3n2)CC1 [SGI-1776]
– | > 30 µM (inactive) | – | > 30 µM (inactive) | – | – | – | – | – | – | > 30 µM (inactive) | – | – | – | Nc1nc(N)c2nc(-c3cccc(O)c3)c(-c3cccc(O)c3)nc2n1 [TG100-115]
> 30 µM (inactive) | – | – | > 30 µM (inactive) | – | – | > 30 µM (inactive) | > 30 µM (inactive) | > 30 µM (inactive) | – | > 30 µM (inactive) | > 30 µM (inactive) | > 30 µM (inactive) | > 30 µM (inactive) | O=c1sn(-c2cccc3ccccc23)c(=O)n1Cc1ccccc1 [TIDEGLUSIB]
– | > 30 µM (inactive) | > 30 µM (inactive) | > 30 µM (inactive) | > 30 µM (inactive) | > 30 µM (inactive) | > 30 µM (inactive) | – | > 30 µM (inactive) | > 30 µM (inactive) | > 30 µM (inactive) | – | > 30 µM (inactive) | – | CN1N=C(N)c2cn([C@@H]3O[C@H](COP(=O)(O)O)[C@@H](O)[C@H]3O)c3ncnc1c23 [TRICIRIBINE PHOSPHATE]
– | – | > 30 µM (inactive) | – | – | – | > 30 µM (inactive) | > 30 µM (inactive) | > 30 µM (inactive) | > 30 µM (inactive) | – | > 30 µM (inactive) | > 30 µM (inactive) | – | CC(C)Nc1cc(-c2c[nH]c(C(=O)N[C@H](CO)c3cccc(Cl)c3)c2)c(Cl)cn1 [ULIXERTINIB]
– | – | > 30 µM (inactive) | > 30 µM (inactive) | – | > 30 µM (inactive) | > 30 µM (inactive) | – | > 30 µM (inactive) | – | – | – | > 30 µM (inactive) | – | CCn1c(=O)c(-c2cc[nH]n2)cc2c(C)nc(N)nc21 [VOXTALISIB]

SMILES | Kd [1] | Kd [2] | Kd (Myosin-10) | Kd (Obg-like ATPase 1) | Kd [3] | Kd [4] | Kd [5] | Kd [6] | Kd (Ephrin type-A receptor 1) | Kd [7] | Kd [8] | Kd [9] | Kd [10] | Kd (Misshapen-like kinase 1)
O=C(c1ccc(F)c(F)c1Nc1ccc(I)cc1F)N1CC(O)([C@@H]2CCCCN2)C1 [COBIMETINIB] | > 30 µM (inactive) | > 30 µM (inactive) | – | – | > 30 µM (inactive) | > 30 µM (inactive) | > 30 µM (inactive) | > 30 µM (inactive) | > 30 µM (inactive) | > 30 µM (inactive) | – | > 30 µM (inactive) | – | > 30 µM (inactive)
Cc1cn(-c2cc(NC(=O)c3ccc(C)c(Nc4nccc(-c5cccnc5)n4)c3)cc(C(F)(F)F)c2)cn1 [NILOTINIB] | – | > 30 µM (inactive) | > 30 µM (inactive) | > 30 µM (inactive) | – | > 30 µM (inactive) | – | – | – | – | > 30 µM (inactive) | – | > 30 µM (inactive) | –
